Measured values from PMC10880909, “Correction: A high-throughput effector screen identifies a novel small molecule scaffold for inhibition of ten-eleven translocation dioxygenase 2” (RSC Medicinal Chemistry, 2024).

Target: hTET2 (Homo sapiens, UniProt Q6N021)
Test: MALDI-based inhibition assay of hTET2
Conditions: for hTET2 inhibition, result in words: additional SAR / re-synthesis

Row | IC50 [µM] | SMILES | hTET2 inhibition, result in words
1 | > 200 | CCCCCOS(=O)(=O)c1ccc(F)c2ncc(I)cc12 [Compound 6] | 
2 | > 200 | NS(=O)(=O)c1ccc(F)c2ncc(I)cc12 [Compound 8] | 
3 | > 200 | CNS(=O)(=O)c1ccc(F)c2ncc(I)cc12 [Compound 9] | 
4 | > 200 | O=S(=O)(c1ccc(F)c2ncc(I)cc12)N1CCCC1 [Compound 10] | 
5 | > 200 | O=S(=O)(Nc1ccccc1)c1ccc(F)c2ncc(I)cc12 [Compound 11] | 
6 | > 200 | CC(C)OS(=O)(=O)c1ccc(F)c2ncc(I)cc12 [Compound 5] | 

Further lines, the molecule ahead of its results:

Row | SMILES | IC50 [µM] | hTET2 inhibition, result in words
7 | O=S(=O)(Nc1cccc(O)c1)c1ccc(F)c2ncc(I)cc12 [Compound 16] | > 200 | 
8 | O=C(O)c1ccc(F)c2ncccc12 [Compound 19] | > 200 | inactivity
9 | O=S(=O)(O)c1ccc(O)c2ncccc12 [Compound 18] | 12.1 ± 4.2 | 
10 | O=S(=O)(NCCc1ccccc1)c1ccc(F)c2ncc(I)cc12 [Compound 14] | > 200 | 
11 | O=S(=O)(NCc1ccccc1)c1ccc(F)c2ncc(I)cc12 [Compound 13] | > 200 | 
12 | O=C(O)c1ncccc1O [Compound 22, 3-hydroxypicolinic acid] | 48.6 | micromolar IC50 values
13 | Oc1cc2c(cc1O)CNCC2 [Compound 21, tetrahydroisoquinoline-6,7-diol] | 8.6 | micromolar IC50 values
